# In ChEMBL document CHEMBL1201862, “PubChem BioAssay data set” (2004):
#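 Protocol summary: plate cells (96-well), add compound at 5 concentrations, incubate 48 h, interpolate endpoints linearly. Abbreviation: GI50, concentration required for 50% inhibition of growth.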 The source made the active and inactive calls. No stated cut-off is given here; in the data, active = GI50 up to about 1.1 µM and inactive = higher.
# Columns and labels:
# Test in all cases: NCI-60 cell line screen, 48 h
# PC-3 = system: PC-3
# NCI-H522 = system: NCI-H522
# LOX IMVI = system: LOX IMVI
# Hs-578T = system: Hs-578T
# MDA-MB-435 = system: MDA-MB-435
# RXF 393 = system: RXF 393
# BT-549 = system: BT-549
# NCI-H226 = system: NCI-H226
# EKVX = system: EKVX
# SF-539 = system: SF-539
# SF-268 = system: SF-268
# HCT-15 = system: HCT-15
# DU-145 = system: DU-145
# Malme-3M = system: Malme-3M
# SK-OV-3 = system: SK-OV-3
# NCI-H460 = system: NCI-H460
# HL-60 = system: HL-60
# KM12 = system: KM12
# HOP-62 = system: HOP-62
# SNB-19 = system: SNB-19
SMILES,GI50 (PC-3),GI50 (NCI-H522),GI50 (LOX IMVI),GI50 (Hs-578T),GI50 (MDA-MB-435),GI50 (RXF 393),GI50 (BT-549),GI50 (NCI-H226),GI50 (EKVX),GI50 (SF-539),GI50 (SF-268),GI50 (HCT-15),GI50 (DU-145),GI50 (Malme-3M),GI50 (SK-OV-3),GI50 (NCI-H460),GI50 (HL-60),GI50 (KM12),GI50 (HOP-62),GI50 (SNB-19)
CCOC(=O)c1nnsc1NN=C(C)C,> 100 µM (inactive),> 100 µM (inactive),> 100 µM (inactive),> 100 µM (inactive),> 100 µM (inactive),> 100 µM (inactive),> 100 µM (inactive),> 100 µM (inactive),> 100 µM (inactive),> 100 µM (inactive),> 100 µM (inactive),> 100 µM,> 100 µM (inactive),> 100 µM (inactive),> 100 µM (inactive),> 100 µM (inactive),> 100 µM (inactive),> 100 µM (inactive),> 100 µM (inactive),–
O=C(NCc1ccccc1)c1c(O)nc2ccccc2c1O,> 100 µM (inactive),> 100 µM (inactive),> 100 µM (inactive),40.7 µM (inactive),> 100 µM (inactive),> 100 µM (inactive),> 100 µM (inactive),> 100 µM (inactive),> 100 µM (inactive),> 100 µM (inactive),> 100 µM (inactive),> 100 µM,> 100 µM (inactive),> 100 µM (inactive),–,> 100 µM (inactive),> 100 µM (inactive),> 100 µM (inactive),> 100 µM (inactive),> 100 µM (inactive)
CSc1c(C#N)c(S)n(-c2ccc(Cl)cc2)c(=O)c1C#N,76.9 µM (inactive),50.9 µM (inactive),> 100 µM (inactive),> 100 µM (inactive),> 100 µM (inactive),93.3 µM (inactive),> 100 µM (inactive),48.9 µM (inactive),> 100 µM (inactive),> 100 µM (inactive),> 100 µM (inactive),74.1 µM,> 100 µM (inactive),> 100 µM (inactive),> 100 µM (inactive),> 100 µM (inactive),52.5 µM (inactive),40.2 µM (inactive),–,> 100 µM (inactive)
Cc1ccc(-c2c(C#N)c(N)[nH]c(=S)c2C#N)cc1,33 µM (inactive),19.4 µM (inactive),42.2 µM (inactive),18.5 µM (inactive),23.3 µM (inactive),18.7 µM (inactive),34.1 µM (inactive),23.9 µM (inactive),13.4 µM (inactive),> 100 µM (inactive),31.9 µM (inactive),38.7 µM,50.8 µM (inactive),26.4 µM (inactive),–,47.6 µM (inactive),17.3 µM (inactive),40.8 µM (inactive),55 µM (inactive),77.1 µM (inactive)
COc1ccc2oc(=O)c(-c3csc(-c4ccccc4)n3)cc2c1,89.5 µM (inactive),–,54.8 µM (inactive),37.8 µM (inactive),> 100 µM (inactive),24.9 µM (inactive),21.4 µM (inactive),39.2 µM (inactive),41.4 µM (inactive),16.9 µM (inactive),28.8 µM (inactive),> 100 µM,> 100 µM (inactive),–,17.3 µM (inactive),54 µM (inactive),> 100 µM (inactive),> 100 µM (inactive),17.4 µM (inactive),20.5 µM (inactive)
COC(=O)C(=O)C(C(=O)C(=O)Nc1cccc([N+](=O)[O-])c1)c1nc2ccc(Cl)cc2nc1O (stereo not given),> 100 µM (inactive),> 100 µM (inactive),> 100 µM (inactive),> 100 µM (inactive),> 100 µM (inactive),> 100 µM (inactive),> 100 µM (inactive),82.6 µM (inactive),18.1 µM (inactive),45.5 µM (inactive),> 100 µM (inactive),> 100 µM,> 100 µM (inactive),–,> 100 µM (inactive),> 100 µM (inactive),> 100 µM (inactive),> 100 µM (inactive),> 100 µM (inactive),> 100 µM (inactive)
CC1=NN(C(=O)CC(=O)Nc2ccccc2Cl)C(=O)C1/N=N/c1ccc(C(=O)O)cc1 (stereo not given),> 100 µM (inactive),> 100 µM (inactive),65.6 µM (inactive),> 100 µM (inactive),> 100 µM (inactive),> 100 µM (inactive),> 100 µM (inactive),–,4.46 µM (inactive),> 100 µM (inactive),> 100 µM (inactive),> 100 µM,> 100 µM (inactive),> 100 µM (inactive),–,> 100 µM (inactive),> 100 µM (inactive),> 100 µM (inactive),> 100 µM (inactive),> 100 µM (inactive)
Cn1c(=O)c(C(=O)Nc2nc(C34CC5CC(CC(C5)C3)C4)cs2)c(O)c2ccccc21,> 100 µM (inactive),55.3 µM (inactive),> 100 µM (inactive),23.8 µM (inactive),> 100 µM (inactive),22.2 µM (inactive),75.2 µM (inactive),52.8 µM (inactive),> 100 µM (inactive),> 100 µM (inactive),> 100 µM (inactive),> 100 µM,> 100 µM (inactive),> 100 µM (inactive),–,> 100 µM (inactive),86.9 µM (inactive),> 100 µM (inactive),10.7 µM (inactive),35.6 µM (inactive)
